Measured values taken from publication PMC2766634 (Journal of medicinal chemistry, 2009).
Where “and” joins values, the source holds several entries; their conditions need not be identical. Equal entries are not always repeated. Marks after values point to notes of the source that are not given here.

Assays:
[1] = Cyclic voltammetry in water pH 7.0; assay type: physicochemical; details: pH 7.0 phosphate buffer, 0.1 M KCl, 25 °C
[2] = test system: G. lamblia (WB/C6, GS/M, 106, and 713); test: Antigiardial growth inhibition; assay type: cell-based, Giardia lamblia; details: IC50 in HeLa cells / EC50 in Giardia
[3] = Cyclic voltammetry in DMSO; assay type: physicochemical; details: for E1/2 in DMSO (half-wave potential, 0/−1 reduction), mean ± SE: cyclic voltammetry, 0.10 M NBu4PF6 in DMSO, 25 °C, 100 mV/s; for E1/2 more positive than Mz: in DMSO, relative to Mz
HeLa cells = test: Cytotoxicity assay; assay type: cell-based, human; details: Homo sapiens, HeLa, 48 h, read-out: toxicity in HeLa cells, pIC50 (mean ± SE) (converted)

| SMILES | E1/2 in DMSO (half-wave potential, 0/−1 reduction), mean ± SE [3] | further results |
| --- | --- | --- |
| Cn1c([N+](=O)[O-])cnc1/C=C/c1cccs1 [compound 30, 1-Methyl-5-nitro-2-[(E)-2-(2-thienyl)vinyl]-1H-imidazole] | −1.528 ± 0.003 V vs Fc | Ep in water (peak potential), mean ± SE [1]: −0.658 ± 0.001 V vs SCE; selectivity ratio, IC50/EC50 [2]: 1,122 |
| Cn1c([N+](=O)[O-])cnc1/C=C/c1ccccc1Br [compound 10, 2-[(E)-2-(2-Bromophenyl)vinyl]-1-methyl-5-nitro-1H-imidazole] | −1.481 ± 0.001 V vs Fc | – |
| Cn1c([N+](=O)[O-])cnc1C(O)C(O)c1ccc(Br)cc1 (stereo not shown) [compound 35, 1-(4-Bromophenyl)-2-(1-methyl-5-nitro-1H-imidazol-2-yl)-ethane-1,2-diol] | −1.544 ± 0.001 V vs Fc | – |
| Cn1c([N+](=O)[O-])cnc1/C=C/c1cccc2ccccc12 [compound 25, 1-Methyl-2-[(E)-2-(1-naphthyl)vinyl]-5-nitro-1H-imidazole] | −1.502 ± 0.004 V vs Fc | selectivity ratio, IC50/EC50 [2]: 1,000 |
| Cn1c([N+](=O)[O-])cnc1/C=C/c1cccc(Cl)c1 [compound 14, 2-[(E)-2-(3-Chlorophenyl)vinyl]-1-methyl-5-nitro-1H-imidazole] | −1.492 ± 0.002 V vs Fc | – |
| Cn1c([N+](=O)[O-])cnc1/C=C/c1cccc(I)c1 [compound 18, 2-[(E)-2-(3-Iodophenyl)vinyl]-1-methyl-5-nitro-1H-imidazole] | −1.494 ± 0.004 V vs Fc | IC50 (HeLa cells): 31.6 µM |
| Cn1c([N+](=O)[O-])cnc1/C=C/c1ccc(Cl)cc1 [compound 15, 2-[(E)-2-(4-Chlorophenyl)vinyl]-1-methyl-5-nitro-1H-imidazole] | −1.503 ± 0.001 V vs Fc | Ep in water (peak potential), mean ± SE [1]: −0.584 ± 0.001 V vs SCE |
| Cn1cncc1[N+](=O)[O-] [1-methyl-5-NI, reference compound] | −1.557 V vs Fc and −1.557 ± 0.001 V vs Fc | – |
| Cc1ccc(CCc2ncc([N+](=O)[O-])n2C)cc1 [compound 41, 1-Methyl-2-[2-(4-methylphenyl)ethyl]-5-nitro-1H-imidazole] | −1.592 ± 0.003 V vs Fc | – |
| Cc1ccc(/C=C/c2ncc([N+](=O)[O-])n2C)cc1 [compound 8, 1-Methyl-2-[(E)-2-(4-methylphenyl)vinyl]-5-nitro-1H-imidazole] | −1.522 ± 0.003 V vs Fc | selectivity ratio, IC50/EC50 [2]: >617 |
| Cn1c([N+](=O)[O-])cnc1CCc1ccc(Br)cc1 [compound 42, 2-[2-(4-Bromophenyl)ethyl]-1-methyl-5-nitro-1H-imidazole] | −1.592 ± 0.003 V vs Fc | IC50 (HeLa cells): 97.7 µM |
| Cc1cccc(/C=C/c2ncc([N+](=O)[O-])n2C)c1 [compound 7, 1-Methyl-2-[(E)-2-(3-methylphenyl)vinyl]-5-nitro-1H-imidazole] | −1.516 ± 0.001 V vs Fc | Ep in water (peak potential), mean ± SE [1]: −0.635 ± 0.003 V vs SCE |
| Cn1c([N+](=O)[O-])cnc1/C=C/c1ccc(OC(F)(F)F)cc1 [compound 21, 1-Methyl-5-nitro-2-{(E)-2-[4-(trifluoromethoxy)phenyl]vinyl}-1H-imidazole] | −1.487 ± 0.001 V vs Fc | – |
| Cc1cc(C)c(/C=C/c2ncc([N+](=O)[O-])n2C)c(C)c1 [compound 9, 1-Methyl-2-[(E)-2-(2,4,6-trimethylphenyl)vinyl]-5-nitro-1H-imidazole] | −1.529 ± 0.001 V vs Fc | E1/2 more positive than Mz [3]: 30–50 mV; IC50 (HeLa cells): 11 µM |
| COc1cccc(/C=C/c2ncc([N+](=O)[O-])n2C)c1 [compound 20, 2-[(E)-2-(3-Methoxyphenyl)vinyl]-1-methyl-5-nitro-1H-imidazole] | −1.580 ± 0.007 V vs Fc | Ep in water (peak potential), mean ± SE [1]: −0.763 ± 0.001 V vs SCE |
| Cn1c([N+](=O)[O-])cnc1C(Br)C(Br)c1ccc(Br)cc1 (stereo not shown) [compound 33, 2-[1,2-Dibromo-2-(4-bromophenyl)ethyl]-1-methyl-5-nitro-1H-imidazole] | −1.493 ^d ± 0.004 V vs Fc | – |
| COc1ccc(/C=C/c2ncc([N+](=O)[O-])n2C)c(OC)c1OC [compound 22, 1-Methyl-5-nitro-2-[(E)-2-(2,3,4-trimethoxyphenyl)vinyl]-1H-imidazole] | −1.584 ± 0.005 V vs Fc | Ep in water (peak potential), mean ± SE [1]: −0.757 ± 0.003 V vs SCE |
| Cn1c([N+](=O)[O-])cnc1/C=C/c1cccc(Br)c1 [compound 11, 2-[(E)-2-(3-Bromophenyl)vinyl]-1-methyl-5-nitro-1H-imidazole] | −1.497 ± 0.005 V vs Fc | – |
| Cn1c([N+](=O)[O-])cnc1CCc1ccccc1 [compound 40, 1-Methyl-5-nitro-2-(2-phenylethyl)-1H-imidazole] | −1.593 ± 0.002 V vs Fc | – |
| Cn1c([N+](=O)[O-])cnc1/C=C/c1ccccc1-c1ccccc1 [compound 24, 2-[(E)-2-Biphenyl-2-ylvinyl]-1-methyl-5-nitro-1H-imidazole] | −1.512 ± 0.001 V vs Fc | – |
| Cn1c([N+](=O)[O-])cnc1/C=C/c1ccsc1 [compound 31, 1-Methyl-5-nitro-2-[(E)-2-(3-thienyl)vinyl]-1H-imidazole] | −1.508 ± 0.002 V vs Fc | Ep in water (peak potential), mean ± SE [1]: −0.595 ± 0.001 V vs SCE; selectivity ratio, IC50/EC50 [2]: >1,023 |
| Cn1c([N+](=O)[O-])cnc1/C=C/c1ccc(Cl)cc1Cl [compound 16, 2-[(E)-2-(2,4-Dichlorophenyl)vinyl]-1-methyl-5-nitro-1H-imidazole] | −1.469 ± 0.002 V vs Fc | E1/2 more positive than Mz [3]: ~ 90 mV |
| Cn1c([N+](=O)[O-])cnc1/C=C/c1ccccc1Cl [compound 13, 2-[(E)-2-(2-Chlorophenyl)vinyl]-1-methyl-5-nitro-1H-imidazole] | −1.486 ± 0.004 V vs Fc | – |
| CC(=O)OC(c1ccc(Br)cc1)C(OC(C)=O)c1ncc([N+](=O)[O-])n1C (stereo not shown) [compound 37, 1-(1-Methyl-5-nitro-1H-imidazol-2-yl)-2-(4-bromophenyl)-ethane-1,2-diyl Diacetate] | – | IC50 (HeLa cells): 97.7 µM |
| Cc1ccc(C(O)C(O)c2ncc([N+](=O)[O-])n2C)cc1 (stereo not shown) [compound 34, 1-(1-Methyl-5-nitro-1H-imidazol-2-yl)-2-(4-methylphenyl)-ethane-1,2-diol] | −1.557 ± 0.001 V vs Fc | – |
